Experimental data as given in PubChem BioAssay (NCI).
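All cell lines were grown in 96-well plates and treated with compound for 48 hours. The concentration for full growth arrest is given as TGI.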

Key:
Assay in all cases: growth of human tumour cells (NCI), 48 h
SK-OV-3 ovarian = test system: SK-OV-3 ovarian
SN12C renal = test system: SN12C renal
TK-10 renal = test system: TK-10 renal
M14 melanoma = test system: M14 melanoma
CAKI-1 renal = test system: CAKI-1 renal
SW-620 colon = test system: SW-620 colon
SK-MEL-5 melanoma = test system: SK-MEL-5 melanoma
MDA-N = test system: MDA-N
MALME-3M melanoma = test system: MALME-3M melanoma
MDA-MB-435 = test system: MDA-MB-435
NCI-H522 lung = test system: NCI-H522 lung
SF-295 CNS = test system: SF-295 CNS
SNB-75 CNS = test system: SNB-75 CNS
UACC-257 melanoma = test system: UACC-257 melanoma
HS 578T breast = test system: HS 578T breast
SF-268 CNS = test system: SF-268 CNS
OVCAR-8 ovarian = test system: OVCAR-8 ovarian
MDA-MB-231 breast = test system: MDA-MB-231 breast
SF-539 CNS = test system: SF-539 CNS
PC-3 prostate = test system: PC-3 prostate
NCI/ADR-RES ovarian = test system: NCI/ADR-RES ovarian
CCRF-CEM leukemia = test system: CCRF-CEM leukemia
HCT-116 colon = test system: HCT-116 colon
OVCAR-5 ovarian = test system: OVCAR-5 ovarian
HCT-15 colon = test system: HCT-15 colon
HOP-92 NSCLC = test system: HOP-92 NSCLC
HOP-62 NSCLC = test system: HOP-62 NSCLC
UO-31 renal = test system: UO-31 renal
RXF 393 renal = test system: RXF 393 renal
K-562 leukemia = test system: K-562 leukemia
SK-MEL-2 melanoma = test system: SK-MEL-2 melanoma
LOX IMVI melanoma = test system: LOX IMVI melanoma
SNB-19 CNS = test system: SNB-19 CNS
SK-MEL-28 melanoma = test system: SK-MEL-28 melanoma
ACHN renal = test system: ACHN renal
T-47D breast = test system: T-47D breast
786-0 renal = test system: 786-0 renal
UACC-62 melanoma = test system: UACC-62 melanoma
DU-145 prostate = test system: DU-145 prostate
HL-60(TB) leukemia = test system: HL-60(TB) leukemia
NCI-H460 lung = test system: NCI-H460 lung
A498 renal = test system: A498 renal
EKVX NSCLC = test system: EKVX NSCLC
MOLT-4 leukemia = test system: MOLT-4 leukemia
OVCAR-3 ovarian = test system: OVCAR-3 ovarian
U251 CNS = test system: U251 CNS
A549 NSCLC = test system: A549 NSCLC
BT-549 breast = test system: BT-549 breast
IGROV1 ovarian = test system: IGROV1 ovarian
RPMI-8226 leukemia = test system: RPMI-8226 leukemia
COLO 205 colon = test system: COLO 205 colon
KM12 colon = test system: KM12 colon
NCI-H23 lung = test system: NCI-H23 lung
NCI-H226 lung = test system: NCI-H226 lung
HT29 colon = test system: HT29 colon
HCC-2998 colon = test system: HCC-2998 colon
OVCAR-4 ovarian = test system: OVCAR-4 ovarian
MCF7 breast = test system: MCF7 breast

Measured: TGI

ClC1=NN=C(c2c[nH]c3ccccc23)CC1NCc1ccccc1 (stereo not given)
not listed: HCC-2998 colon | OVCAR-4 ovarian | MCF7 breast
> 100 µM: all other assays above

FC1=C2C3CCC(C3)C2C1(F)F (stereo not given)
not listed: HS 578T breast | HOP-92 NSCLC | BT-549 breast
> 100 µM: all other assays above
